Patent publication EP1030842B1, “METALLOPROTEINASE INHIBITORS” (BRITISH BIOTECH PHARMACEUTICALS LIMITED, priority 1997, dated 1999)
Where two headings read alike, the source gives them in different places. Blank lines part the entries; values can stand above or below the molecule they belong to.

Legend:
[1] = Propensity to induce observable signs of tendinitis in rats (observation based score); assay type: in vivo, Male Lewis rats; details: 5µl/hr; for signs of tendinitis: observed daily for 16 days, mean scores >2 significant
Experimental: The compound of the invention was tested for its propensity to induce observable signs of tendinitis in rats. The tendinitic effect in rats of the compound of the invention ("Compound A") was compared with that of a close structural isomer, namely N^1-[2,2-dimethyl-1S-(pyridin-3-ylcarbamoyl)-propyl]-N^4-hydroxy-2R-isobutyl-3S-hydroxy-succinamide ("Compound B").
Male Lewis rats were used. In each study up to 30 rats were weighed and randomised on bodyweight for group allocation, n=6/group. In each study, a corresponding vehicle group was run to compare with each treatment group.
Compound A was formulated as its mesylate salt, whilst Compound B was formulated as the free base. For Compound A @ 15mg/ml the vehicle was 50% DMSO, 37% 0.1M methane sulphonic acid, 13% sterile water; and @ 30mg/ml the vehicle was 50% DMSO, 37% 0.2M methane sulphonic acid, 13% sterile water. For Compound B @ 15mg/ml the vehicle was 50% DMSO/water.
Alzet (trade mark) osmotic minipumps (2ML2, 14 day, 5µl/hr from Alza Corp., Palo Alto CA 94303), were weighed empty and full to be sure of correct fill volume. Prior to implantation, filled pumps were placed in an incubator at 37°C. All rats were anaesthetized with halothane. Once anaesthetised, the scruff was shaved and disinfected. A longitudinal skin incision, approx 2 cm long, was made on the prepared site and a subcutaneous pocket was made under the skin using a pair of haemostatic forceps. Minipumps were inserted with the exit of the pump facing away from the wound. The incision wound was closed with sutures, and the area around the wound was re-disinfected. Immediately post-operatively, all the rats received analgesic, (Temgesic -trade mark - Reckitt and Colman) 0.1mg/kg s.c. in the flank. On recovery from anaesthesia, the animals were returned to cages containing dry bedding to ensure the wound remained dust free prior to healing. On the day followng surgery, all rats were placed back on standard bedding and housed in groups of 3 to enable more accurate observation of signs of tendinitis.
Following the implantation of mini-pumps, rats were weighed and monitored for the possible onset of tendinitis. Onset and severity of tendinitis was measured by an observation based scoring system (see below). The rats were observed daily for 16 days. Mean scores >2 were considered significant.

[2] = Blood concentration in minipump-dosed rats of the tendinitis study (fluorometric assay); assay type: in vivo; details: rats of the tendinitis tests; blood samples days 3, 10 and 16 or 17 post implantation
Experimental: Blood samples were obtained on days 3 and 10 post minipump implantation from rats lightly anaesthetised with halothane via the tail vein. Blood samples (0.5ml) were placed into tubes containing 3.0ml methanol to extract free and bound compound. Blood concentration of Compound A or Compound B was determined by a fluorometric assay using the coumarin peptide substrate Mca-Pro-Leu-Gly-Leu-Dpa-Ala-Arg-NH2 (Mca = (7-methoxycoumarin-4-yl)acetyl, Dpa = N-3-(2,4-dinitrophenyl)-L-2,3-diaminopropyl) (see Knight et. al., FEBS Lett. 1992, 296, 263-266). On either day 16 or 17 post implantation, studies were ended, rats were terminally anaesthetised with halothane and blood samples (0.5ml) were taken by cardiac puncture and the blood concentration of Compound A or Compound B determined.

72 kDa gelatinase = target: T1, 72 kDa gelatinase (Homo sapiens, UniProt P08253); assay: 72 kDa gelatinase inhibition (14C gelatin, based on Sellers et al); assay type: biochemical; details: 16 hours at 37°C
T1 construct: endogenous in cells; host or cells: RPMI-7951 cells
T1 sequence (P08253 110-660): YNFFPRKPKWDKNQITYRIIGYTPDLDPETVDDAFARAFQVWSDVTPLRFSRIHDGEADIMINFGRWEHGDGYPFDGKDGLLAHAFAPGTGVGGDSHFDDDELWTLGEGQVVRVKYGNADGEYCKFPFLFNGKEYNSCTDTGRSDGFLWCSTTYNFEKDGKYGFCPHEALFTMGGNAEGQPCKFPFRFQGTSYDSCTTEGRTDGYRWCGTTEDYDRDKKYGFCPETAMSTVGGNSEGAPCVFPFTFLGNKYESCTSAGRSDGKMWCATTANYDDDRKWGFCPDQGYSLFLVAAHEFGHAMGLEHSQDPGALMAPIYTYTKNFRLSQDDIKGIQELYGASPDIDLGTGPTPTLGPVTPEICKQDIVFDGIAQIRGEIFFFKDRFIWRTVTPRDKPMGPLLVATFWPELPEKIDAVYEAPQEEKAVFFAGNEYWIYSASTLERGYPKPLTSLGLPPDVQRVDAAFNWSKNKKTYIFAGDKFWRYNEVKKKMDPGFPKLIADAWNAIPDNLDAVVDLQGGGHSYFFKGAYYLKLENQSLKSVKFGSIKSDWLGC
Experimental: 72 kDa gelatinase, derived from RPMI-7951 cells was purified by gelatin-agarose chromatography. The enzyme was activated by incubation with aminophenyl mercuric acetate and approximately 0.05 units was incubated with 50µg [^14C]-radiolabelled gelatin in an appropriate buffer for 16 hours at 37'C. At the end of the incubation 50µg bovine serum albumin, together with trichloroacetic acid (final concentration 16%) were added to stop the reaction and to precipitate any undegraded substrate. The reaction tubes were placed on ice for 15 minutes before centrifugation at 10,000g for 15 minutes to sediment the precipitated substrate. A 200µl aliquot of the reaction supernatant was removed and the radioactivity determined by liquid scintillation counting. The effect of the inhibitors was determined by reference to a dose response curve. The IC50 (the concentration of inhibitor required to cause a 50% decrease in enzyme activity) was obtained by fitting a curve to the data and computing the concentration of inhibitor required to achieve 50% inhibition of the enzyme. For each IC50 determination, the effect on gelatinase activity of at least 8 concentrations of the inhibitor were examined. The inhibitors were dissolved and diluted in DMSO.

[3] = Blood concentration over time after gavage, by collagenase inhibitory activity of blood extracts; assay type: in vivo; details: male rats
Experimental: The concentration over time of compound of the invention in the blood of laboratory animals following administration of the test compounds was measured. The compound was administered by gavage to 6 male rats (300g) per treatment group. Blood samples were removed by tail venepuncture at 0.5, 1.0, 2.0, 6.0 and 24 hours post administration. 0.4 ml of blood was placed into 4.5ml tubes containing 0.1ml acid citrate dextrose (ACD) as anti-coagulant. For extraction, 3ml methanol was added and the precipitated blood pelletted by centrifugation (30 min at 3000 rpm). A 2ml aliquot of supernatant was removed and concentrated by lyophilisation. The extract was redissolved in 200µl DMSO and a 10µl aliquot assayed for collagenase inhibitory activity. The inhibitory activity in the extracts was determined using the collagenase assay described in Biological Example A above, and the concentration of inhibitor (that is drug plus any active metabolites) obtained by comparison with standard curves. Results are expressed as peak concentration in ng/ml, as area under the curve (AUC) in ng/ml x hours, over 0.5-24 hours, and as AUC in number of IC50's x hours.

[4] = Inhibitory activity in blood after oral administration to marmosets; assay type: in vivo
[5] = Inhibitory activity in blood after oral administration to healthy human volunteers; assay type: in vivo
B16 mouse melanoma cells = assay: B16 mouse melanoma model; assay type: in vivo, C57/BL6J mice
Excerpt: In this model C57/BL6J mice are inoculated subcutaneously with 10^5 B16 mouse melanoma cells. The tumours are allowed to grow over 18 days and the tumour weight calculated by calliper measurements and the following formula: weight (mg)- length (mm) x width (mm) ö 4. A group of mice (n=19) received the compound, administered via a mini-osmotic pump implanted subcutaneously on the opposite flank to the B16 tumour. The pump was implanted the day before tumour inoculation and the compound was delivered at a dose of 360 µg/day. A control group (n=17) received the appropriate volume of vehicle from identical implanted pumps.

MDA-435 cells = details: study ended day 32
Experimental: In this model, animals were inoculated with MDA-435 cells (10^6 cells/mouse), the tumours allowed to grow for four days and then the animals were randomised by tumour weight into three treatment groups (n=15 per group). Mini-pumps were surgically implanted on day 5 containing either vehicle or test compound at 15 mg/ml or 60 mg/ml (delivering 180 or 720 µg/mouse/day respectively). The pumps were replaced on day 19 and the study ended on day 32.

[6] = Rat experimental autoimmune neuritis (EAN) model of GBS; assay type: in vivo
Experimental: The effect of the compound of the invention was tested in an animal model of GBS Experimental autoimmune neuritis (EAN) is a T cell mediated, autoimmune disorder of the peripheral nervous system. […] EAN can be induced when animals are injected with myelin from peripheral nerves, or with protein components of the myelin such as Protein 0, in adjuvant. EAN lesions occur in the spinal roots and peripheral nerves and are characterised by perivascular mononuclear cell infiltration, demyelination of axons and nerve conduction deficit.
The compound of the invention was tested in a rat EAN model where disease symptoms were induced by injection of peripheral nerve myelin in adjuvant. […]

[7] = Delayed type hypersensitivity (DTH) model of MS; assay type: in vivo, Male Lewis rats; details: 30mg/kg orally twice daily, mean ± standard error of the mean
interstitial collagenase = interstitial collagenase (Homo sapiens, UniProt P03956); assay: biochemical
interstitial collagenase, sequence (P03956 100-469, species assumed): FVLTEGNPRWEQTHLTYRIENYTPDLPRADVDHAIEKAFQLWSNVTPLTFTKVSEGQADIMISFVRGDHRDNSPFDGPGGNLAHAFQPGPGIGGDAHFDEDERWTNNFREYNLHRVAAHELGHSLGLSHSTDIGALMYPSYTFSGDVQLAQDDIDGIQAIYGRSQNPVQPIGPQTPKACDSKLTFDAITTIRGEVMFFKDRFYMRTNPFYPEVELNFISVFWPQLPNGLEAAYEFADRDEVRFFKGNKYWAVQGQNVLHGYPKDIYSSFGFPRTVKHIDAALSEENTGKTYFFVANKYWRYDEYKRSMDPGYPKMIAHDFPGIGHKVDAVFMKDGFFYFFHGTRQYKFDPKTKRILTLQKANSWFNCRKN
Experimental: The potency of the compound of the invention as inhibitors of interstitial collagenase was determined by the procedure of Cawston and Barrett, (Anal. Biochem., 99, 340-345, 1979), whereby a 1mM solution of the compound being tested, or a dilution thereof, was incubated at 37° for 16 hours with collagen and collagenase (buffered with 25mM Hepes, pH 7.5 containing 5mM CaCl2, 0.05% Brij 35 and 0.02% NaN3). The collagen was acetylated ^14C collagen prepared by the method of Cawston and Murphy, (Methods in Enzymology, 80, 711, 1981), hereby incorporated by reference. The samples were centrifuged to sediment undigested collagen, and an aliquot of the radioactive supernatant removed for assay on a scintillation counter as a measure of hydrolysis.

stromelysin-1 = stromelysin-1 (Homo sapiens, UniProt P08254); assay: biochemical
stromelysin-1, sequence (P08254 100-477, species assumed): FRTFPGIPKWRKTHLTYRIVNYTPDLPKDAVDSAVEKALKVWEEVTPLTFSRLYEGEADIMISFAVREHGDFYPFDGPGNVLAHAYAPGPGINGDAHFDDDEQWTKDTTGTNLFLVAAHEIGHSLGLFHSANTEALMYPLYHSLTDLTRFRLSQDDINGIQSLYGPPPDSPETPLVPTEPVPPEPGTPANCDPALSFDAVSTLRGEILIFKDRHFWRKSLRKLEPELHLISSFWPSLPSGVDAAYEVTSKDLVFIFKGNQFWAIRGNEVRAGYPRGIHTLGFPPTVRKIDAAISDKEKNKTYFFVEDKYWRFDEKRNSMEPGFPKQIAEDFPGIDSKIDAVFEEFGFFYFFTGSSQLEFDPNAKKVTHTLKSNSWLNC
Experimental: The potency of the compound of the invention as inhibitors of stromelysin-1 was determined by the procedure of Cawston et al, (Biochem. J., 195, 159-165, 1981), whereby a 1mM solution of the compound being tested, or a dilution thereof, was incubated at 37° for 16 hours with stromelysin and ^14C acetylate casein (buffered with 25mM Hepes, pH 7.5 containing 5mM CaCl2, 0.05% Brij 35 and 0.02% NaN3). The casein was acetylated ^14C casein prepared by the method of Cawston et al (ibid).

[8] = 15mg/ml in osmotic minipump, Compound A as mesylate salt, Compound B as free base

signs of tendinitis [1, 8]: significant signs from day 8 onwards
mean scores (tendinitis) ([1]; day 8, 15mg/ml in osmotic minipump): > 2
mean scores (tendinitis) ([1]; days 15 and 16, 15mg/ml in osmotic minipump): about 6
plasma exposure from the minipumps [2]: receiving plasma exposure
Compound: CC(C)C[C@@H](C(=O)N[C@H](C(=O)Nc1cccnc1)C(C)(C)C)[C@H](O)C(=O)NO [Compound B, N^1-[2,2-dimethyl-1S-(pyridin-3-ylcarbamoyl)-propyl]-N^4-hydroxy-2R-isobutyl-3S-hydroxy-succinamide]

Compound: CO[C@H](C(=O)NO)[C@@H](CC(C)C)C(=O)N[C@H](C(=O)Nc1ccccn1)C(C)(C)C [compound of the invention, N^1-[2,2-Dimethyl-1S-(pyridin-2-ylcarbamoyl)-propyl]-N^4-hydroxy-2R-isobutyl-3S-methoxy-succinamide]
IC50 (72 kDa gelatinase): 70 nM
AUC (0.5 - 24h) ([3]; AUC in number of IC50's x hours): 674 n IC50's x h
AUC (0.5 - 24h) ([3]; drug plus any active metabolites in blood): 2966 ng/ml x h
inhibitory activity in the blood [4]: significant levels of inhibitory activity have been detected
inhibitory activity in the blood [5]: significant levels of inhibitory activity have been detected
weight of the compound-treated tumours (B16 mouse melanoma cells; day 18, 360 µg/day via subcutaneous mini-osmotic pump, control 1145 ± 97 mg): 774 ± 50 mg
reduction of tumour weight (B16 mouse melanoma cells; day 18, 360 µg/day, versus vehicle control, p<0.005): 32%
plasma level (B16 mouse melanoma cells; end of the study, 360 µg/day via mini-osmotic pump): 26.8 ± 3.2 ng/mL
inhibition of tumour growth (MDA-435 cells; 180 µg/mouse/day (15 mg/ml mini-pump)): 19%
inhibition of tumour growth (MDA-435 cells; 720 µg/mouse per day (60 mg/ml mini-pump), p<0.005): 33%
signs of tendinitis [1, 8]: no significant signs of tendinitis
signs of tendinitis ([1]; 30mg/ml in osmotic minipump, mesylate salt): no significant signs of tendinitis
clinical symptoms ([6]; given therapeutically day 8-15, 15 or 30 mg/ml at 10 µl/hour, 14 and 28 mg/kg/day): reduces clinical symptoms in a dose dependent manner
development of clinical symptoms ([6]; treatment day 1-15, minipumps 15 or 30 mg/ml at 5 µl/hour, 7 and 14 mg/kg/day): significantly reduces the development of clinical symptoms in a dose-dependent manner
Blood brain barrier leakage ([7]; day 5 to day 15 after second BCG injection, p<0.05 vs vehicle): 2.042±0.487 mm^2
T cell infiltration ([7]; OX-22 positive cells, p<0.0001 vs vehicle): 341.2±21.9 cells/mm^2
Demyelination ([7]; not statistically significant): 0.758±0.227 mm^2
MHC class II expression ([7]; not statistically significant): 1.318±0.300 mm^2
plasma exposure from the minipumps [2]: receiving plasma exposure
IC50 (interstitial collagenase): 10 nM
IC50 (stromelysin-1): 30 nM
